Results as given in patent publication US9701670B2, “Pyrazolyl-ureas as kinase inhibitors” (RESPIVERT LIMITED, priority 2013, dated 2017).
pIC50: −log10 of the molar value.

How the values were obtained:
[1] = test system: Differentiated U937 cells; experiment: (l) Cell viability: MTT assay; assay type: cell-based, human; conditions: 1 μg/mL
Method: Differentiated U937 cells are pre-incubated with each test compound (final concentration 1 μg/mL or 10 μg/mL in 200 μL media indicated below) under two protocols: the first for 4 hr in 5% FCS RPMI1640 media and the second in 10% FCS RPMI1640 media for 24 h. The supernatant is replaced with new media (200 μL) and MTT stock solution (10 μL, 5 mg/mL) is added to each well. After incubation for 1 hr the media are removed, DMSO (200 μL) is added to each well and the plates are shaken lightly for 1 hr prior to reading the absorbance at 550 nm. The percentage loss of cell viability is calculated for each well relative to vehicle (0.5% DMSO) treatment. Consequently an apparent increase in cell viability for drug treatment relative to vehicle is tabulated as a negative percentage.

[2] = target: p38 MAPKα isoform (MAPK14) (Homo sapiens (Human), UniProt Q16539); experiment: p38 MAPKα enzyme inhibition (FRET, Z-LYTE), Method 1; assay type: biochemical; conditions: Method 1 (Table 4a1)
Chain of p38 MAPKα isoform (MAPK14) (Q16539 whole entry, canonical isoform): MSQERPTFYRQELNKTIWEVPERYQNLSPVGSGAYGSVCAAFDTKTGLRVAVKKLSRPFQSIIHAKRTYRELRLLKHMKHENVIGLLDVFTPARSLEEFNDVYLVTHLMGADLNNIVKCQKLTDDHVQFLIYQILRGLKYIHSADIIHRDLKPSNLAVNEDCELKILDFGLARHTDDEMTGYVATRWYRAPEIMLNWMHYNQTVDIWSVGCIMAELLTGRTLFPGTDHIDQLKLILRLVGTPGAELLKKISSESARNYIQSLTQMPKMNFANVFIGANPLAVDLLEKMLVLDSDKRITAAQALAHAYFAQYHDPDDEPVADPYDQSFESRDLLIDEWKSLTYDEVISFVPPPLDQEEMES
Method: The enzyme inhibitory activities of compounds disclosed herein are determined by FRET using synthetic peptides labelled with both donor and acceptor fluorophores (Z-LYTE, Invitrogen Ltd., Paisley, UK).
The inhibitory activities of test compounds against the p38 MAPKα isoform (MAPK14: Invitrogen), are evaluated indirectly by determining the level of activation/phosphorylation of the down-stream molecule, MAPKAP-K2. The p38 MAPKα protein (80 ng/mL, 2.5 μL) is mixed with the test compound (2.5 μL of either 4 μg/mL, 0.4 μg/mL, 0.04 μg/mL or 0.004 μg/mL) for 2 hr at RT. […] The mixture is incubated for 1 hr at RT. Development reagent (protease, 5 μL) is added for 1 hr prior to detection in a fluorescence microplate reader (Varioskan® Flash, ThermoFisher Scientific).
In all cases, the site-specific protease cleaves non-phosphorylated peptide only and eliminates the FRET signal. Phosphorylation levels of each reaction are calculated using the ratio of coumarin emission (donor) over fluorescein emission (acceptor), for which high ratios indicate high phosphorylation and low ratios indicate low phosphorylation levels.

SMILES | pIC50 [2] | Cell viability at time point in d-U937 cells 4 h [1] | Cell viability at time point in d-U937 cells 24 h [1]
Cc1ccc(-n2nc(C(C)(C)C)cc2NC(=O)Nc2ccc(Oc3ccnc(Nc4cccc(C(=O)NCCN5CCN(C)CC5)c4)n3)c3ccccc23)cc1 [Example 25, 3-((4-((4-(3-(3-(tert-butyl)-1-(p-tolyl)-1H-pyrazol-5-yl)ureido)naphthalen-1-yl)oxy)pyrimidin-2-yl)amino)-N-(2-(4-methylpiperazin-1-yl)ethyl)benzamide] | 7.89 | −ve (−ve and +ve indicate that the value is below and above respectively, the no significant effect threshold, defined as 30% inhibition at 1 μg/mL at the time point indicated.) | −ve (−ve and +ve indicate that the value is below and above respectively, the no significant effect threshold, defined as 30% inhibition at 1 μg/mL at the time point indicated.)
COc1cc(C(=O)NCCN2CCOCC2)ccc1Nc1nccc(Oc2ccc(NC(=O)Nc3cc(C(C)(C)C)nn3-c3ccc(C)cc3)c3ccccc23)n1 [Example 37, 4-((4-((4-(3-(3-(tert-butyl)-1-(p-tolyl)-1H-pyrazol-5-yl)ureido)naphthalen-1-yl)oxy)pyrimidin-2-yl)amino)-3-methoxy-N-(2-morpholinoethyl)benzamide] | 7.36 | −ve (−ve and +ve indicate that the value is below and above respectively, the no significant effect threshold, defined as 30% inhibition at 1 μg/mL at the time point indicated.) | −ve (−ve and +ve indicate that the value is below and above respectively, the no significant effect threshold, defined as 30% inhibition at 1 μg/mL at the time point indicated.)
COc1ccc(C(=O)NCCO)cc1Nc1nccc(Oc2ccc(NC(=O)Nc3cc(C(C)C)nn3-c3ccc(C)cc3)c3ccccc23)n1 [Example 32, N-(2-hydroxyethyl)-3-((4-((4-(3-(3-isopropyl-1-(p-tolyl)-1H-pyrazol-5-yl)ureido)naphthalen-1-yl)oxy)pyrimidin-2-yl)amino)-4-methoxybenzamide] | 9.00 | −ve (−ve and +ve indicate that the value is below and above respectively, the no significant effect threshold, defined as 30% inhibition at 1 μg/mL at the time point indicated.) | −ve (−ve and +ve indicate that the value is below and above respectively, the no significant effect threshold, defined as 30% inhibition at 1 μg/mL at the time point indicated.)
Cc1ccc(-n2nc(C(C)(C)C)cc2NC(=O)Nc2ccc(Oc3ccnc(Nc4cccc(C(=O)N5CCOCC5)c4)n3)c3ccccc23)cc1 [Example 27, 1-(3-(tert-butyl)-1-(p-tolyl)-1H-pyrazol-5-yl)-3-(4-((2-((3-(morpholine-4-carbonyl)phenyl)amino)pyrimidin-4-yl)oxy)naphthalen-1-yl)urea] | 7.77 | −ve (−ve and +ve indicate that the value is below and above respectively, the no significant effect threshold, defined as 30% inhibition at 1 μg/mL at the time point indicated.) | −ve (−ve and +ve indicate that the value is below and above respectively, the no significant effect threshold, defined as 30% inhibition at 1 μg/mL at the time point indicated.)
COc1ccc(-n2nc(C(C)(C)C)cc2NC(=O)Nc2ccc(Oc3ccnc(Nc4cc(Br)cc(C(N)=O)c4)n3)c3ccccc23)cc1 [Example 42, 3-bromo-5-((4-((4-(3-(3-(tert-butyl)-1-(4-methoxyphenyl)-1H-pyrazol-5-yl)ureido)naphthalen-1-yl)oxy)pyrimidin-2-yl)amino)benzamide] | 6.78 | −ve (−ve and +ve indicate that the value is below and above respectively, the no significant effect threshold, defined as 30% inhibition at 1 μg/mL at the time point indicated.) | −ve (−ve and +ve indicate that the value is below and above respectively, the no significant effect threshold, defined as 30% inhibition at 1 μg/mL at the time point indicated.)
COc1cc(Nc2nccc(Oc3ccc(NC(=O)Nc4cc(C(C)(C)C)nn4-c4ccc(C)cc4)c4ccccc34)n2)cc(C(=O)NCCN(C)C)c1 [Example 43, 3-((4-((4-(3-(3-(tert-butyl)-1-(p-tolyl)-1H-pyrazol-5-yl)ureido)naphthalen-1-yl)oxy)pyrimidin-2-yl)amino)-N-(2-(dimethylamino)ethyl)-5-methoxybenzamide] | 8.40 | −ve (−ve and +ve indicate that the value is below and above respectively, the no significant effect threshold, defined as 30% inhibition at 1 μg/mL at the time point indicated.) | −ve (−ve and +ve indicate that the value is below and above respectively, the no significant effect threshold, defined as 30% inhibition at 1 μg/mL at the time point indicated.)

Second part, led by results:

pIC50 [2] | SMILES | Cell viability at time point in d-U937 cells 4 h [1] | Cell viability at time point in d-U937 cells 24 h [1]
8.05 | COCCOc1cccc(-n2nc(C(C)(C)C)cc2NC(=O)Nc2ccc(Oc3ccnc(Nc4cc(OC)cc(C(=O)NCCN5CCOCC5)c4)n3)c3ccccc23)c1 [Example 55, 3-((4-((4-(3-(3-(tert-butyl)-1-(3-(2-methoxyethoxy)phenyl)-1H-pyrazol-5-yl)ureido)naphthalen-1-yl)oxy)pyrimidin-2-yl)amino)-5-methoxy-N-(2-morpholinoethyl)benzamide] | −ve (−ve and +ve indicate that the value is below and above respectively, the no significant effect threshold, defined as 30% inhibition at 1 μg/mL at the time point indicated.) | −ve (−ve and +ve indicate that the value is below and above respectively, the no significant effect threshold, defined as 30% inhibition at 1 μg/mL at the time point indicated.)
> 9.00 | Cc1ccc(-n2nc(C(C)C)cc2NC(=O)Nc2ccc(Oc3ccnc(Nc4cc(C)cc(C(=O)NCCN5CCOCC5)c4)n3)c3ccccc23)cc1 [Example 44, 3-((4-((4-(3-(3-isopropyl-1-(p-tolyl)-1H-pyrazol-5-yl)ureido)naphthalen-1-yl)oxy)pyrimidin-2-yl)amino)-5-methyl-N-(2-morpholinoethyl)benzamide] | −ve (−ve and +ve indicate that the value is below and above respectively, the no significant effect threshold, defined as 30% inhibition at 1 μg/mL at the time point indicated.) | −ve (−ve and +ve indicate that the value is below and above respectively, the no significant effect threshold, defined as 30% inhibition at 1 μg/mL at the time point indicated.)
8.00 | COc1ccc(-n2nc(C(C)C)cc2NC(=O)Nc2ccc(Oc3ccnc(Nc4cc(C(=O)NCCN5CCOCC5)cc(C(F)(F)F)c4)n3)c3ccccc23)cc1 [Example 47] | −ve (−ve and +ve indicate that the value is below and above respectively, the no significant effect threshold, defined as 30% inhibition at 1 μg/mL at the time point indicated.) | −ve (−ve and +ve indicate that the value is below and above respectively, the no significant effect threshold, defined as 30% inhibition at 1 μg/mL at the time point indicated.)
7.74 | COc1cc(Nc2nccc(Oc3ccc(NC(=O)Nc4cc(C(F)(F)F)nn4-c4ccc(C)cc4)c4ccccc34)n2)cc(C(=O)NCCN2CCOCC2)c1 [Example 48, 3-methoxy-N-(2-morpholinoethyl)-5-((4-((4-(3-(1-(p-tolyl)-3-(trifluoromethyl)-1H-pyrazol-5-yl)ureido)naphthalen-1-yl)oxy)pyrimidin-2-yl)amino)benzamide] | −ve (−ve and +ve indicate that the value is below and above respectively, the no significant effect threshold, defined as 30% inhibition at 1 μg/mL at the time point indicated.) | −ve (−ve and +ve indicate that the value is below and above respectively, the no significant effect threshold, defined as 30% inhibition at 1 μg/mL at the time point indicated.)
> 9.00 | COc1cc(Nc2nccc(Oc3ccc(NC(=O)Nc4cc(C(C)C)nn4-c4ccc(C)c(C)c4)c4ccccc34)n2)cc(C(=O)NCCN2CCOCC2)c1 [Example 56, 3-((4-((4-(3-(1-(3,4-dimethylphenyl)-3-isopropyl-1H-pyrazol-5-yl)ureido)naphthalen-1-yl)oxy)pyrimidin-2-yl)amino)-5-methoxy-N-(2-morpholinoethyl)benzamide] | −ve (−ve and +ve indicate that the value is below and above respectively, the no significant effect threshold, defined as 30% inhibition at 1 μg/mL at the time point indicated.) | −ve (−ve and +ve indicate that the value is below and above respectively, the no significant effect threshold, defined as 30% inhibition at 1 μg/mL at the time point indicated.)
